Assay results from patent US20110105579A1, “Plant Health Composition” (priority 2008, published 2011).

Experiments:
[1] = test system: Soybeans, variety TMG 103 RR; experiment: Soybean field trial: crop emergence and crop establishment after seed treatment (plant count per 5 m row); type: in vivo; settings: for Observed efficacy (%) 12 days after planting / Observed efficacy (%) 33 days after planting: increase in number of plants vs control, S6 75, Ia 50 g a.i./100 kg seed; for Number of plants per 5 m distance (mean) 12 days after planting / Number of plants per 5 m distance (mean) 33 days after planting: soybean seed treatment, S6 75 g a.i./100 kg seed, Ia 50 g a.i./100 kg seed; for Number of plants per 5 m distance (mean) 12 days after planting: crop emergence, control 35; for Number of plants per 5 m distance (mean) 33 days after planting: crop establishment, control 34
Description: Soybeans were grown in 2008 in the Rondonopolis region, Mato Grosso, Brazil. The variety TMG 103 RR was planted at a seeding rate of 45 kg/ha. The trial was setup as randomized bloc design with 4 replications. Plot size was 10 m^2. The soybean seed was treated prior to planting with either orysastrobin (S6), compound Ia or was left untreated (Control). Compound Ia was used as an FS formulation (100 g a.i./L) with a dose rate of 500 ml/100 kg seed (50 g a.i./100 kg). Orysastrobin (S6) was applied as an FS formulation (250 g a.i./L) with a dose rate of 300 ml per 100 kg seed (75 g a.i./100 kg). In the combination treatments of compound Ia and orysastrobin, both formulations were applied in a sequence. The formulations were applied in a total slurry volume of […] of seed.
The observed efficacy (E) of the compounds on crop emergence and crop establishment as an indicator of plant vitality and plant vigor was determined by counting the plants in a row on a distance of 5 m at 12 and 33 days after planting.
The efficacy of the fungicidal treatments was calculated as the increase in the number of plants in the treatments compared to the control (%):
a corresponds to the number in the treated and b corresponds to the number of plants in the untreated (control) plots
The expected efficacy of the combination of the active compounds was estimated using Colby's formula (see example 1 above)

[2] = test system: Corn (Zea maydis var. M314A10) seedlings; experiment: Cold tolerance of corn seedlings after seed treatment (seedling mortality after exposure to -5° C.); type: in vivo; settings: for Observed efficacy (%) of cold tolerance GS 10 (3 hrs): % decrease of seedling mortality vs untreated control; for Observed efficacy (%) of cold tolerance GS 10 (3 hrs) / Seedling mortality (mean %) GS 10 (3 hrs): S8 2.5 g a.i./100 kg seed, Ia 1 g a.i./100 kg seed; for Seedling mortality (mean %) GS 10 (3 hrs): corn seed treatment, -5° C. for 3 hrs at growth stage 10, recorded 3 days after cold treatment, control 27
Description: Corn (Zea maydis var. M314A10) seeds were treated in a Hege 11 seed treater in a total slurry volume of 1000 ml/100 kg seed. Treatments comprised:
1) Water (control) 2) Pyraclostrobin (S8) (2.5 g a.i./100 kg); 3) Compound Ia (1 g a.i./100 kg); 4) Pyraclostrobin (S8) (2.5 g a.i./100 kg)+compound Ia (1 g a.i./100 kg).
CF Clear Binder (19 ml/100 kg seed) and color coat blue (13 ml/100 kg seed) were added to all treatments including the check. Following seed treatment, seeds were allowed to dry overnight. Seeds were planted in plastic pots (10 cm×10 cm×12 cm). Experiments were conducted using natural soil (sandy loam soil, source NC, U.S.A.). Pots were placed inside the greenhouse in a completely randomized design. Seedlings were grown at 25° C., until they reached growth stages 10 (first leaf through coleoptile, BBCH Scale). At growth stages 10, seedlings were placed in a completely randomized design in a low temperature incubator (Thermo Electron Corporation) and exposed to −5° C. during 3 hrs. At the time of cold exposure, pots were at field capacity. Percentage of seedling mortality for each treatment was recorded 3 days after the cold treatment.
The efficacy of induced cold tolerance (E) was calculated as % decrease of seedling mortality in the treatments compared to the untreated control:
a corresponds to the seedling mortality (%) of the treated plants and b corresponds to the seedling mortality (%) of the untreated (control) plants
The expected efficacy of the combination of the active compounds were estimated using Colby's formula (Colby, S. R., Calculating synergistic and antagonistic responses of herbicide combinations, Weeds, 15, pp. 20-22, 1967) and compared with the observed efficacy.
E=x+y−x·y/100 Colby's formula • E expected efficacy, expressed in % of the untreated control, when using the mixture of the active compounds A and B at the concentrations a and b • x efficacy, expressed in % of the untreated control, when using the active ingredient A at the concentration a • y efficacy, expressed in % of the untreated control, when using the active ingredient B at the concentration b

Row | Compound | Observed efficacy (%) 12 days after planting [1] [%] | Observed efficacy (%) 33 days after planting [1] [%] | Number of plants per 5 m distance (mean) 12 days after planting [1] | Number of plants per 5 m distance (mean) 33 days after planting [1] | Observed efficacy (%) of cold tolerance GS 10 (3 hrs) [2] [%] | Seedling mortality (mean %) GS 10 (3 hrs) [2] | seedling mortality, as an indicator of plant vigor (in words) ([2]; vs water control, table 4) | number of plants, as an indicator of plant vigor (in words) ([1]; vs untreated control, table 6)
1 | CNC(=O)/C(=N/OC)c1ccccc1CO/N=C(C)/C(=N/OC)C(/C)=N/OC [Orysastrobin (S6), orysastrobin, reference compound] | 57.1 | 52.9 | 55 | 52 |  |  |  | 
2 | COC(=O)N(OC)c1ccccc1COc1ccn(-c2ccc(Cl)cc2)n1 [Pyraclostrobin (S8), pyraclostrobin, reference compound] |  |  |  |  | 22 | 21 (c) % |  | 
3 | Cn1cc(C(=O)Nc2ccccc2-c2cc(F)c(F)c(F)c2)c(C(F)F)n1 [Compound Ia, N-(3′,4′,5′-trifluorobiphenyl-2-yl)-3-difluoromethyl-1-methyl-1H-pyrazole-4-carboxamide] | 40.0 | 32.3 | 49 | 45 | 15 | 23 (b) % | significantly decreased | significantly increased
